From patent publication US6596867B2, “Tartrate salt of a substituted dipeptide as growth hormone secretagogue” (Pfizer Inc., priority 1997, dated 2003)
Counter-ions that a name gives are not always drawn.

Tests used:
[1] = stability of the crystalline salt (stated property); assay type: physicochemical; details: crystalline form
[2] = solubility of the crystalline salt (stated property); assay type: physicochemical; details: crystalline form

With `CC(C)(N)C(=O)N[C@H](COCc1ccc(F)cc1F)C(=O)N1CCC2=NN(CC(F)(F)F)C(=O)[C@]2(Cc2ccccn2)C1` [2-Amino-N-{1-(2,4-difluoro-benzyloxymethyl)-2-oxo-2-[3-oxo-3a-pyridin-2-ylmethyl-2-(2,2.2-trifluoro-ethyl)-2,3,3a,4,6,7-hexahydro-pyrazolo[4,3-c]pyridin-5-yl]-ethyl}-2-methyl-propionamide L-(+) tartrate] the stability [1] was “good stability” and the solubility [2] was “high solubility”.
